Experimental findings from ChEMBL document CHEMBL5727155, “Ethynyl derivatives” (2018) are described below.

A word on the EC50: it is the midpoint of the concentration-response curve.

For the test, the target named is Metabotropic glutamate receptor 4 (Homo sapiens, UniProt Q14833). In words: Ca2+ Mobilization In Vitro Assay: A monoclonal HEK-293 cell line stably transfected with a cDNA encoding for the human mGlu4 receptor was generated; for the work with mGlu4 Positive Allosteric Modulators (PAMs), a cell line with low receptor expression levels and low constitutive receptor activity was selected to allow the differentiation of agonistic versus PAM activity. Cells were cultured according to standard protocols (Freshney, 2000) in Dulbecco's Modified Eagle Medium with high glucose supplemented with 1 mM glutamine, 10% (vol/vol) heat-inactivated bovine calf serum, Penicillin/Streptomycin, 50 μg/ml hygromycin and 15 μg/ml blasticidin (all cell culture reagents and antibiotics from Invitrogen, Basel, Switzerland).About 24 hrs before an experiment, 5×10^4 cells/well were seeded in poly-D-lysine coated, black/clear-bottomed 96-well plates. The cells were loaded with 2.5 μM Fluo-4AM in loading buffer (1×HBSS, 20 mM HEPES) for 1 hr at 37° C. and washed five times with loading buffer. The cells were transferred into a Functional Drug Screening System 7000 (Hamamatsu, Paris, France), and 11 half logarithmic serial dilutions of test compound at 37° C. were added and the cells were incubated for 10-30 min. with on-line recording of fluorescence. […].
Sequence of Metabotropic glutamate receptor 4 (Q14833 whole entry): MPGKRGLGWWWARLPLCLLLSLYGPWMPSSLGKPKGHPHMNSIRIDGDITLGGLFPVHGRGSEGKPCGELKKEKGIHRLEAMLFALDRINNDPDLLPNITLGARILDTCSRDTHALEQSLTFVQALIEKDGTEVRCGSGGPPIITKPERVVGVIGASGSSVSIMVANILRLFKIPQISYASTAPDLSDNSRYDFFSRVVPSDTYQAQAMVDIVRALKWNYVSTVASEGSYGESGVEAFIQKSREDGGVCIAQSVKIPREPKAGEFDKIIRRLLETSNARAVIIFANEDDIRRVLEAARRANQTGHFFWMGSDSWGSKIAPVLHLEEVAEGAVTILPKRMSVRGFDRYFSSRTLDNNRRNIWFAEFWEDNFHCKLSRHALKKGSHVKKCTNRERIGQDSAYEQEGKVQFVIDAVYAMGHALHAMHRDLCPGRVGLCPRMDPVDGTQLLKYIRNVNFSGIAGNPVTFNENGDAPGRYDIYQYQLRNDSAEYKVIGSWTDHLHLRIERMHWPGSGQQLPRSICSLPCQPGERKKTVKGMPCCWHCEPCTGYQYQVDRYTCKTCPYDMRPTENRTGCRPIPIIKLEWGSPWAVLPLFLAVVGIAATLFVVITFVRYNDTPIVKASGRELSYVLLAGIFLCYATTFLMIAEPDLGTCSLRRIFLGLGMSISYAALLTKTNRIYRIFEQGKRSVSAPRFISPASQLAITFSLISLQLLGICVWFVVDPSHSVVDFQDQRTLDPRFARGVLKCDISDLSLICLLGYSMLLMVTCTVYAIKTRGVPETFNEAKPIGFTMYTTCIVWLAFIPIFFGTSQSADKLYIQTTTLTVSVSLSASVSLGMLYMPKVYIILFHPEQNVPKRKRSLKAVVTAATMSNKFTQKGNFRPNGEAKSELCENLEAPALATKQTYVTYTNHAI

Regarding `CC(C)(C)Oc1ncc(N2CCN3C(=O)N(c4c(F)cc(C#Cc5ccccc5)cc4F)C(=O)C[C@@]3(C)C2=O)cn1`, the EC50 was 157 nM.
